Source: patent publication US20220388979A1, “QUINOLINE DERIVATIVES AS PROTEIN KINASE INHIBITORS” (B.C.I. PHARMA, priority 2019, published 2022)

Tests used:
[1] = system: male C57B16J mice; assay: Streptozotocin-induced diabetic neuropathic pain model, Von Frey mechanical threshold (compound 108 study); format: in vivo; details: pregabalin subcutaneous 0.5 mg/mL in phosphate buffer (100 μL/10 g)
Description: The experiment has been conducted in 8 weeks old male C57B16J mice (from Charles River). For this study, 10 mice per group have been used.
(§1) Diabetes has been induced by a single IP injection of 200 μg/mL streptozotocin solution (100 μL/10 g). Glycemia has been tested before, D+3 and D+7 post-injection. All injected mice presented blood glucose concentration […] at D+7, and then have been used for analgesic testing of the compounds.
Compound 108 has been orally administrated at 2, 5 and 10 mg/mL in 0.9% NaCl solution (50 μL/10 g) and pregabalin has been subcutaneously injected at 0.5 mg/mL in phosphate buffer (100 μL/10 g) at D+14 and D+17. A time course measurement at +1 h, +2 h, +4 h and +6 h has been performed after compound administration.
(§2) Mechanical threshold response of mice has been measured with calibrated Von Frey filaments using the up/down method, blind for manipulator. Measurements have been performed before streptozotocin injection and 14 days after.
(§3) Statistical analysis was performed using SigmaPlot 12.5 software. Percentage of maximum possible effect is calculated as follow
(§4) % MPE=[(Test−Prest)/(cut-off−Prest)]*100
(§5) Where cut-off, Test and Pretest values correspond respectively to baseline measure, timepoint post-administration measure and measure before administration.

[2] = system: male C57Bl6J mice; assay: Streptozotocin-induced diabetic neuropathic pain model, Von Frey mechanical threshold (compound 32 study); format: in vivo; details: pregabalin subcutaneous 0.5 mg/mL in phosphate buffer (100 μL/10 g)
Description: The experiment has been conducted in 8 weeks old male C57Bl6J mice (from Charles River). For this study, 6 mice per group have been used.
as §1
Compound 32 has been orally administrated at 6 mg/mL in Capryol 90 solution (50 μL/10 g) and pregabalin has been subcutaneously injected at 0.5 mg/mL in phosphate buffer (100 μL/10 g) at D+14 and D+16. A time course measurement at +1 h, +2 h, +4 h and +6 h has been performed after compound administration.
as §2, §3, §4, §5

## CC(C)C[C@H](CN)CC(=O)O [Pregabalin, pregabalin]
[1]; +1 h
  Analgesic effect expressed as % MPE: 76.6 ± 15.4 % MPE
  Analgesic effect expressed as % of baseline: 80.6 ± 12.4 % of baseline
[1]; +2 h
  Analgesic effect expressed as % MPE: 79.5 ± 13.7 % MPE
  Analgesic effect expressed as % of baseline: 85.7 ± 10.7 % of baseline
[1]; +4 h
  Analgesic effect expressed as % MPE: 31.0 ± 17.0 % MPE
  Analgesic effect expressed as % of baseline: 45.6 ± 13.0 % of baseline
[1]; +6 h
  Analgesic effect expressed as % MPE: 10.9 ± 7.5 % MPE
  Analgesic effect expressed as % of baseline: 30.3 ± 4.8 % of baseline
[2]; +1 h
  Analgesic effect expressed as % MPE: 80.7 ± 10.8 % MPE
  Analgesic effect expressed as % of baseline: 81.2 ± 7.9 % of baseline
[2]; +2 h
  Analgesic effect expressed as % MPE: 84.6 ± 10.6 % MPE
  Analgesic effect expressed as % of baseline: 86.0 ± 9.1 % of baseline
[2]; +4 h
  Analgesic effect expressed as % MPE: 33.9 ± 5.8 % MPE
  Analgesic effect expressed as % of baseline: 45.0 ± 5.3 % of baseline
[2]; +6 h
  Analgesic effect expressed as % MPE: 5.9 ± 4.3 % MPE
  Analgesic effect expressed as % of baseline: 23.5 ± 2.1 % of baseline
